pIC50: −log10 of the molar value.
Experiments:
[1] = target: T1, rat RabGGT (Rattus norvegicus, UniProt Q08602+Q08603); assay: RabGGT filter binding assay: transfer of (3H)geranylgeranyl from 3H-GGPP to recombinant Rab3A; format: biochemical; conditions: for IC90/IC50: RabGGT inhibition
T1 construct: purchased Calbiochem 345855; host or cells: Sf9/baculovirus
T1 sequence (Q08602 1-567): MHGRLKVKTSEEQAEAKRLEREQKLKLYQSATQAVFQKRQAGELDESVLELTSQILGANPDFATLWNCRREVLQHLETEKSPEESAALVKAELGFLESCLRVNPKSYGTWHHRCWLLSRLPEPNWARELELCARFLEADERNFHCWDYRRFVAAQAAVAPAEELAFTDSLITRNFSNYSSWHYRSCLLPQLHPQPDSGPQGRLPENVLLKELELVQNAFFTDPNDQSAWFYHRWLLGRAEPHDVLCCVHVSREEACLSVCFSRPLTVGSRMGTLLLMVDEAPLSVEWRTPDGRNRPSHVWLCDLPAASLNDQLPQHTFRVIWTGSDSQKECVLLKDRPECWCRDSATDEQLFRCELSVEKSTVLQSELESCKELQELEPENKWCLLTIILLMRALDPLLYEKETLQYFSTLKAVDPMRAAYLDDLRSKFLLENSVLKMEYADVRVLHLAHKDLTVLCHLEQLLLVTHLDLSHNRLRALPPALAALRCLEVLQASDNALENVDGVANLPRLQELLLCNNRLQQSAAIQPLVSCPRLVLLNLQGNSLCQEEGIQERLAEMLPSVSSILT
T1 sequence (Q08603 1-331): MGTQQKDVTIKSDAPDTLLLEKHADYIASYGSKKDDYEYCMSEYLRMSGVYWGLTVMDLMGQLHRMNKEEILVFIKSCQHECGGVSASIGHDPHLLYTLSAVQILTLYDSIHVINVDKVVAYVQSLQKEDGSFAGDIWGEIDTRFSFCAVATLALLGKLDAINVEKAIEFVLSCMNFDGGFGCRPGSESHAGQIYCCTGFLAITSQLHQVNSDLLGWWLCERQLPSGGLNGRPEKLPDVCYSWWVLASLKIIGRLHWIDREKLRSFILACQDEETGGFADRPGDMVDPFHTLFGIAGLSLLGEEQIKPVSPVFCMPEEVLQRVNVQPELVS
Excerpt: The effect of compounds 7A through 7T on RabGGT activity was quantified using a filter binding assay that measures the transfer of (3H) geranylgeranyl groups (GG) from all-trans-(3H)geranylgeranyl pyrophosphate (3H-GGPP) to recombinant Rab3A protein (Shen & Seabra, 1996, JBC, 271 :3692; Armstrong et al., 1996, Methods in Enzymology 257:30). Modifications to published protocols are noted explicitly below.
Recombinant rat RabGGT, expressed using the Sf9/baculovirus system, was purchased from Calbiochem (cat. no. 345855). Recombinant unprenylated human Rab3A was obtained from Panvera.(cat. no. P2173). Human REβ-1, expressed in Sf9 cells, was obtained from Calbiochem (cat. no. 554000). Tritium labeled geranylgeranyl pyrophosphate was purchased from Amersham Pharmacia Biotech (15 Ci/mmol). Unlabeled GGPP was purchased from Sigma (cat. no. G-6025).
The reaction buffer contained 50 mM HEPES pH7.4, 5 mM MgCl2, 1 mM DTT, 1 mM Nβ-40. Solutions of RabGGT, Rab3A, REP-1, and GGPP were prepared in this reaction buffer. Final protein concentrations in the reaction mixture were modified from the published protocols, with the standard reaction mixture containing 2 μM Rab3A, 0.2 μM REP-1, 5 μM unlabeled GGPP, 0.5 μM labeled GGPP, and 10-50 nM RabGGT in a total volume of 20 μl. The specific activity of (3H)GGPP used in the assay was 3000 dpm/pmol.
Compounds were prepared as 50 mM stocks in DMSO and diluted to give an appropriate concentration for the assay as a 20% DMSO stock. 2 μl of the diluted compound stock was added to a 20 μl reaction to give a final DMSO concentration of 2% in the assay.
The order of addition of reagents was altered from the published protocols. Reaction mixtures were prepared by sequentially adding Rab3A and REP-1 proteins to the reaction buffer, followed by compound and RabGGT enzyme to a volume of 18 μl. Reactions were initiated by the addition of 2 μl of a solution that contained unlabeled and labeled GGPP. After a 30 minute incubation at 37° C., 1 ml of stop solution (1 volume of concentrated HCl acid with 9 volumes of ethanol) was added and mixed. The solution was then incubated at room temperature for 1 hour to completely precipitate proteins.
The precipitate was collected by vacuum filtration using a vacuum filtration manifold (Millipore model 1225) onto 25 mm GF/A filters (Whatman) that were prewetted with ethanol. The tubes were rinsed twice with 1 ml ethanol which was also poured over the filters. Each filter was subsequently washed three times with 2 mls of ethanol per wash, dried under vacuum, and then put in scintillation vials. Four milliliters of scintillation fluid was added and the radioactivity was quantified on a scintillation counter. Several types of blank reactions were conducted including withholding the enzyme, the substrate, or the accessory protein REP-1, or replacing the compound solution with a 20% DMSO solution. For the substrate titration experiment, the equimolar amounts of Rab3A and REP-1 were mixed and preincubated for 30 min at room temperature before addition of the enzyme.
The data was analyzed by non-linear regression analysis methods using the program PRIZM (GraphPad Software, Inc.). Inhibition constants were obtained by analyzing the data using the one site competition equation provided by the software. FIG. 7 presents a typical data series obtained for compound 7B using these methods.

[2] = system: C. elegans germline; assay: Apoptosis in the C. elegans germline (apoptotic corpses per germline arm), after compound and/or RNAi treatment; format: in vivo; conditions: for increase in apoptotic corpses / % arms with >2 corpses / Corpses/germline arm, mean / Frequency: germline arms with 0 apoptotic corpses / Frequency: germline arms with 1 apoptotic corpse / Frequency: germline arms with 2 apoptotic corpses / Frequency: germline arms with 3 apoptotic corpses / Frequency: germline arms with 4 apoptotic corpses / Frequency: germline arms with >4 apoptotic corpses: 7B at 1.6 mM
[3] = system: HCT116 colon tumor; conditions: HCT116 xenograft, 600 mg/kg orally once daily for ten doses, cited from earlier work
[4] = recombinant rat RabGGT, Rab3A, REP-1, 30 minute at 37° C.
[5] = wild-type worms, 7B 0.3 mM and/or RNAi against RabGGT alpha subunit

N#Cc1ccc2c(c1)CN(S(=O)(=O)N1CCCCC1)[C@H](Cc1ccccc1)CN2Cc1cnc[nH]1 [Compound 7B]
IC90/IC50 [1]: 9 | pIC50 ([1]; Table 7): 7.68 | pIC50 [1, 4]: 7.68 | IC90 [1, 4]: 199 nM | increase in apoptotic corpses ([2]; APAF-1/ced-4 mutants): no increase in corpses was observed | % arms with >2 corpses ([2]; WT worms): 100% | Corpses/germline arm, mean ([2]; WT worms): 6.25 | Frequency: germline arms with 0 apoptotic corpses ([2]; WT worms): 0 | Frequency: germline arms with 1 apoptotic corpse ([2]; WT worms): 0 | Frequency: germline arms with 2 apoptotic corpses ([2]; WT worms): 0 | Frequency: germline arms with 3 apoptotic corpses ([2]; WT worms): 1 | Frequency: germline arms with 4 apoptotic corpses ([2]; WT worms): 0 | Frequency: germline arms with >4 apoptotic corpses ([2]; WT worms): 10 | increase in apoptotic corpses ([2]; caspase/ced-3 mutants): no increase in corpses was observed | % arms with >2 corpses ([2]; ced3 mutant worms): 0% | Corpses/germline arm, mean ([2]; ced3 mutant worms): 0.08 | Frequency: germline arms with 0 apoptotic corpses ([2]; ced3 mutant worms): 12 | Frequency: germline arms with 1 apoptotic corpse ([2]; ced3 mutant worms): 1 | Frequency: germline arms with 2 apoptotic corpses ([2]; ced3 mutant worms): 0 | Frequency: germline arms with 3 apoptotic corpses ([2]; ced3 mutant worms): 0 | Frequency: germline arms with 4 apoptotic corpses ([2]; ced3 mutant worms): 0 | Frequency: germline arms with >4 apoptotic corpses ([2]; ced3 mutant worms): 0 | % arms with >2 corpses ([2]; ced4 mutant worms): 0% | Corpses/germline arm, mean ([2]; ced4 mutant worms): 0.15 | Frequency: germline arms with 0 apoptotic corpses ([2]; ced4 mutant worms): 11 | Frequency: germline arms with 1 apoptotic corpse ([2]; ced4 mutant worms): 2 | Frequency: germline arms with 2 apoptotic corpses ([2]; ced4 mutant worms): 0 | Frequency: germline arms with 3 apoptotic corpses ([2]; ced4 mutant worms): 0 | Frequency: germline arms with 4 apoptotic corpses ([2]; ced4 mutant worms): 0 | Frequency: germline arms with >4 apoptotic corpses ([2]; ced4 mutant worms): 0 | observed number of apoptotic corpses per germline arm ([2]; wild-type adult worms, compound at 0.8 mM or higher): 5-7 | % arms with 0-2 corpses [2, 5]: 50% | % arms with 3-4 corpses [2, 5]: 33% | % arms with >4 corpses [2, 5]: 17% | Corpses/arm, mean [2, 5]: 2.3 | Frequency: arms with 0 apoptotic corpses [2, 5]: 5 | Frequency: arms with 1 apoptotic corpse [2, 5]: 5 | Frequency: arms with 2 apoptotic corpses [2, 5]: 2 | Frequency: arms with 3 apoptotic corpses [2, 5]: 5 | Frequency: arms with 4 apoptotic corpses [2, 5]: 3 | Frequency: arms with >4 apoptotic corpses [2, 5]: 4

CCCS(=O)(=O)N1Cc2cc(C#N)ccc2N(Cc2cnc[nH]2)C[C@H]1Cc1ccccc1 [Compound 7H]
IC90/IC50 [1]: 5 | pIC50 ([1]; Table 7): 7.68 | pIC50 [1, 4]: 7.68 | IC90 [1, 4]: 115 nM | death attributed to drug related toxicity (among eight mice treated) [3]: one | mice that experienced cure of the tumor (among eight mice treated) ([3]; cure = no mass larger than 35 mg): seven

COc1ccc(S(=O)(=O)N2Cc3cc(C#N)ccc3N(Cc3cnc[nH]3)C[C@H]2Cc2ccccc2)cc1 [Compound 7A]
IC90/IC50 [1]: 8 | pIC50 ([1]; Table 7): 7.44 | pIC50 [1, 4]: 7.44 | IC90 [1, 4]: 295 nM

Cn1cncc1CN1C[C@@H](Cc2ccccc2)N(S(=O)(=O)c2cccs2)Cc2cc(C#N)ccc21 [Compound 7J]
IC90/IC50 [1]: 5 | pIC50 ([1]; Table 7): 7.92 | pIC50 [1, 4]: 7.92 | IC90 [1, 4]: 58 nM

COc1ccc(S(=O)(=O)N2Cc3cc(C#N)ccc3N(Cc3cncn3C)C[C@H]2Cc2ccccc2)cc1 [Compound 7I]
IC90/IC50 [1]: 6 | pIC50 ([1]; Table 7): 7.80 | pIC50 [1, 4]: 7.80 | IC90 [1, 4]: 93 nM

— patent US20040142888A1, “Modulators of RabGGT and methods of use thereof” (priority 2002, published 2004)
